Source: PMC3716717, “The molecular basis for recognition of bacterial ligands at equine TLR2, TLR1 and TLR6” (Veterinary Research, 2013)
pEC50: −log10 of the molar value. Peptide text beside a SMILES is read from it. * marks the point of attachment. X1 = CCCCCCCCCCCCCCCC(=O)OCC(C*)OC(=O)CCCCCCCCCCCCCCC; Palmitoyl = CCCCCCCCCCCCCCCC(=O)*

Experiments:
Format in all cases: cell-based
equine TLR2/6 = experiment: NF-κB dual luciferase reporter assay in SW620 cells transfected with equine TLR2+TLR6+CD14
Procedure: (§1) SW620 cells (a gift from Richard Tapping, USA) were utilised for TLR2/1 and TLR2/6 transient transfection experiments, as, unlike HEK293 cells, they are 1) deficient in significant expression of all three receptors, and 2) poorly responsive to Pam2CSK4 and Pam3CSK4 without exogenously added TLRs (Additional file 1). […] SW620 cells were seeded at 3.75 × 10^4 cells per well of a 48 well plate and transiently transfected 24 hours later using Fugene 6 (Promega) at a ratio of 1 μg DNA: 4 μL Fugene 6. For transfection, expression vectors containing cDNA encoding human (in pFLAG-CMV) or equine (in pcDNA3) TLR2, -1 and -6, and CD14 (in pcDNA3), were mixed as appropriate. TLR cDNA-containing vectors were used at 2.5 ng/well; CD14 cDNA-containing vectors were used at 1.25 ng/well. […] Cells were stimulated for six hours, lysed using diluted passive lysis buffer (PLB; Promega), and NF-κB activation measured by the dual luciferase reporter assay (Promega). […]
(§2) SW620 cells were transiently transfected with reporter constructs and one of four receptor combinations: human TLR2+TLR1+CD14, human TLR2+TLR6+CD14, equine TLR2+TLR1+CD14 or equine TLR2+TLR6+CD14, and stimulated with increasing doses of ligand. EC50 and maximum stimulation values were determined at each heterodimer as measures of ligand potency and efficacy respectively.

human TLR2 [1] = target: T1, human TLR2 (Homo sapiens, UniProt O60603); experiment: NF-κB reporter assay in SW620 cells transfected with human TLR2 only (+CD14); design: FLAG (from vector pFLAG-CMV); expressed in transfected cells; host or cells: SW620 (human); settings: 20 ng/mL ligand
T1 sequence (O60603 21-784): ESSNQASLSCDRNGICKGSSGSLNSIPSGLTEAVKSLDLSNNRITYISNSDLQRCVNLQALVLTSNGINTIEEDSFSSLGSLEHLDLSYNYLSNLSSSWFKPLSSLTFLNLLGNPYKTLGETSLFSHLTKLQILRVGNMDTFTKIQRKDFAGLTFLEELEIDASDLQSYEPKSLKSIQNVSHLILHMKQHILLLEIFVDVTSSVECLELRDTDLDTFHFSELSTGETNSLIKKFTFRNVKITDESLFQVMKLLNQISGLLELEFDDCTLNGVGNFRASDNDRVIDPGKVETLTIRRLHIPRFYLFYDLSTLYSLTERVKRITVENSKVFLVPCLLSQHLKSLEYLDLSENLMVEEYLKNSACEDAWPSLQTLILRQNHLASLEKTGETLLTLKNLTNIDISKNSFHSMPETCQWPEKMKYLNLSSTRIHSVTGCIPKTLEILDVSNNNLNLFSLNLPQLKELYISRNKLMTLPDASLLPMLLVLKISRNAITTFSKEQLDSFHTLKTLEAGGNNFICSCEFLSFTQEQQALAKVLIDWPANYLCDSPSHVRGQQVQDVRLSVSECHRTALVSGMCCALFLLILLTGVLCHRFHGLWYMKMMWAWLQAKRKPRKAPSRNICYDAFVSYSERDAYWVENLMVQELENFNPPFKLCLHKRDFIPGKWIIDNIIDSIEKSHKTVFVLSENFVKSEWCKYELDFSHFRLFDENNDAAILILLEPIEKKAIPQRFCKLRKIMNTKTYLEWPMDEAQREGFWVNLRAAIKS
Procedure: (§3) SW620 cells (a gift from Richard Tapping, USA) were utilised for TLR2/1 and TLR2/6 transient transfection experiments, as, unlike HEK293 cells, they are 1) deficient in significant expression of all three receptors, and 2) poorly responsive to Pam2CSK4 and Pam3CSK4 without exogenously added TLRs (Additional file 1). […] SW620 cells were seeded at 3.75 × 10^4 cells per well of a 48 well plate and transiently transfected 24 hours later using Fugene 6 (Promega) at a ratio of 1 μg DNA: 4 μL Fugene 6. For transfection, expression vectors containing cDNA encoding human (in pFLAG-CMV) or equine (in pcDNA3) TLR2, -1 and -6, and CD14 (in pcDNA3), were mixed as appropriate. TLR cDNA-containing vectors were used at 2.5 ng/well; CD14 cDNA-containing vectors were used at 1.25 ng/well. TLR constructs were replaced with empty vector (pcDNA3), as appropriate, to balance total added DNA amounts. […] Cells were stimulated for six hours, lysed using diluted passive lysis buffer (PLB; Promega), and NF-κB activation measured by the dual luciferase reporter assay (Promega).
(§4) Supplementary file 1297-9716-44-50-S1.pdf: Additional file 1 Expression of TLRs and responses to synthetic ligands of SW620 and HEK293 cells. […] (A) After 25 PCR cycles, TLR4 was detected in SW620, and TLR1 was detected in HEK293. […]

human TLR2/1 = target: T2, human TLR2/1 (Homo sapiens, UniProt O60603+Q15399); experiment: NF-κB dual luciferase reporter assay in SW620 cells transfected with human TLR2+TLR1+CD14; settings: human TLR2+TLR1+CD14, 6 h stimulation, normalised curves
T2 construct: FLAG (from vector pFLAG-CMV); expressed in transfected cells; host or cells: SW620 (human)
T2 sequence (O60603 21-784): as above
T2 sequence (Q15399 25-786): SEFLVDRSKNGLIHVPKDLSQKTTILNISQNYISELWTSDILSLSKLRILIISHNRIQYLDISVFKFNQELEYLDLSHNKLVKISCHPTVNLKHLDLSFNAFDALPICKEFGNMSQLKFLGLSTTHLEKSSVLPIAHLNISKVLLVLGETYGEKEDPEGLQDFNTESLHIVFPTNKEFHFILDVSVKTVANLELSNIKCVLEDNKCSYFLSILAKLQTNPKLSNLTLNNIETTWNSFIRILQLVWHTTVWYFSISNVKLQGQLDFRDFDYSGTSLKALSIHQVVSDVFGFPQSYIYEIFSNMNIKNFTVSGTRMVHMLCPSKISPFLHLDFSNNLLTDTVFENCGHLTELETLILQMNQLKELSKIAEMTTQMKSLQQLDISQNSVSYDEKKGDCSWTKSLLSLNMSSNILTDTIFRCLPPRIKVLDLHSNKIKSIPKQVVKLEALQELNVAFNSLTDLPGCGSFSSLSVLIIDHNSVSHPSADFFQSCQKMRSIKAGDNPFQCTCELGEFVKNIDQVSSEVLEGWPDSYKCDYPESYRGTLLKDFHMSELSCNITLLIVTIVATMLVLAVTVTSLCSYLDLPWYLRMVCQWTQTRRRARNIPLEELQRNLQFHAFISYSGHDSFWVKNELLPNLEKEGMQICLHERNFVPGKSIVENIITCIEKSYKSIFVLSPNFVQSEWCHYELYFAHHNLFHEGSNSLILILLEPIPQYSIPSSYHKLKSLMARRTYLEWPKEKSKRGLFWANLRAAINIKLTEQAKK
Procedure: as §1, §2

equine TLR2/1 = experiment: NF-κB dual luciferase reporter assay in SW620 cells transfected with equine TLR2+TLR1+CD14; settings: for EC50: SW620 cells, equine TLR2+TLR1+CD14, 6 h stimulation, NF-κB luciferase, normalised curves
Procedure: as §3, with “amounts. Reporter constructs pNF-κB-luc (Clontech; 25 ng/well) and ph-RG-TK (Promega; 12.5 ng/well), encoding firefly luciferase under an NF-κB promoter and constitutively expressed Renilla luciferase respectively, were then added to all receptor mixtures, together with 10× Tris-EDTA (TE). Following mixing of DNA, and per 4 wells, 0.7 μL Fugene 6 was diluted to 10 μL in serum- and antibiotic-free RPMI and incubated for 5 min. DNA mixtures were then added to the Fugene 6/RPMI mixtures and incubated for 30 min at room temperature. Following incubation, transfection mixtures were diluted to 1 mL per 4 wells in complete SW620 medium.” for “amounts.”, “(Promega). […]” for “(Promega).”
as §2

human TLR2 [2] = target: T1, human TLR2; experiment: NF-κB reporter assay in HEK293 cells transfected with human TLR2 only (+CD14); settings: 20 ng/mL ligand, human TLR2 + human CD14, endogenous TLR1/6
Procedure: HEK293 cells were seeded at a density of 3 × 10^4 cells per well of a 96 well plate and transiently transfected 48 h later using JetPEI (Polyplus). For transfection, expression vectors containing cDNA encoding human TLR2, -1 and -6, and CD14, were mixed as appropriate. TLR cDNA-containing and CD14 cDNA-containing vectors were used at 1 ng/well. TLR constructs were replaced as appropriate with empty vector (pcDNA3) to balance the total added DNA amounts. pNF-κB-luc (10 ng/well) and ph-RG-TK (5 ng/well) were added to receptor mixtures, together with 10× TE and 150 mM NaCl to give a total volume of 50 μL per 10 wells. Following mixing of DNA, and per 10 wells, 2 μL JetPEI was added to 48 μL 150 mM NaCl. JetPEI/NaCl was added to the DNA mixtures at a 1:1 ratio and incubated for 30 min at room temperature. Following incubation, transfection mixtures were diluted to 1 mL per 10 wells in complete HEK medium. Old medium was removed from plated cells and replaced with the transfection/complete medium mixtures. […] Cells were stimulated for six hours, lysed using diluted PLB, and NF-κB activation measured by the dual luciferase reporter assay (Promega).
as §4

human TLR2/6 = target: T3, human TLR2/6 (Homo sapiens, UniProt O60603+Q9Y2C9); experiment: NF-κB dual luciferase reporter assay in SW620 cells transfected with human TLR2+TLR6+CD14
T3 construct: FLAG (from vector pFLAG-CMV); expressed in transfected cells; host or cells: SW620 (human)
T3 sequence (O60603 21-784): as the sequence (O60603 21-784) above
T3 sequence (Q9Y2C9 32-796): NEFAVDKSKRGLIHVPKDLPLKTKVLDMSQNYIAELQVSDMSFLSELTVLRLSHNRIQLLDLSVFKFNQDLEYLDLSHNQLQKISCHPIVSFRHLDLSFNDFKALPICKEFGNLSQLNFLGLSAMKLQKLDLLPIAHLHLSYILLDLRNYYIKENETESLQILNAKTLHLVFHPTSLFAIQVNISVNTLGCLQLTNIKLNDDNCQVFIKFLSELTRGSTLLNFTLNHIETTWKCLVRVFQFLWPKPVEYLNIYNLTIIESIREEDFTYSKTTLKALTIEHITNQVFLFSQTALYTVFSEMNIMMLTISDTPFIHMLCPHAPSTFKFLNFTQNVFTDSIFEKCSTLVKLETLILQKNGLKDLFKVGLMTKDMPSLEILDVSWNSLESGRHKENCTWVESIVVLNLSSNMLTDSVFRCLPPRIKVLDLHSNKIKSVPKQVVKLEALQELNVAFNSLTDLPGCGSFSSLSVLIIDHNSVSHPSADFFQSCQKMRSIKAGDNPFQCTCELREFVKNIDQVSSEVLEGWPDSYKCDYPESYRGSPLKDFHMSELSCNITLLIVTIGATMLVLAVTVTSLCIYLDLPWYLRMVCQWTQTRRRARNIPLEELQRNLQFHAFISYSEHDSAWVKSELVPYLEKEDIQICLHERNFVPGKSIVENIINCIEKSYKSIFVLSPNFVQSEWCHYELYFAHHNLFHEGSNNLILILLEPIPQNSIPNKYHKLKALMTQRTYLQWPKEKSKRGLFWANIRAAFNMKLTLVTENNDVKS
Procedure: as §1, §2

Row | Structure (SMILES) | EC50 (equine TLR2/6; equine TLR2+TLR6+CD14, 6 h stimulation, NF-κB luciferase, normalised curves) [ng/mL] | NF-κB response of SW620 with exogenous TLR2 only (human TLR2 [1]) | pEC50 (human TLR2/1) | EC50 (equine TLR2/1) [ng/mL] | potency at equine TLR2/1 relative to human TLR2/1 (equine TLR2/1; more potent at equine TLR2/1 than at human TLR2/1) [fold] | NF-κB response of HEK293 with exogenous TLR2 only (human TLR2 [2]) | pEC50 (human TLR2/6; human TLR2+TLR6+CD14, 6 h stimulation, NF-κB luciferase, normalised curves) | stimulation of equine TLR2/6 (equine TLR2/6; data not shown) | stimulation of human TLR2/6 (human TLR2/6; data not shown)
1 | CCCCCCCCCCCCCCCC(=O)OCC(CSC[C@H](N)C(=O)N[C@@H](CO)C(=O)N[C@@H](CCCCN)C(=O)N[C@@H](CCCCN)C(=O)N[C@@H](CCCCN)C(=O)N[C@@H](CCCCN)C(=O)O)OC(=O)CCCCCCCCCCCCCCC (stereo partly shown) [Pam2CSK4] (H-C(X1)SKKKK-OH; N-terminus and C-terminus assumed) | 0.010 | respond weakly | 8.48 | 0.43 | 10 | respond to both ligands | 10.93 | – | –
2 | CCCCCCCCCCCCCCCC(=O)N[C@@H](CSCC(COC(=O)CCCCCCCCCCCCCCC)OC(=O)CCCCCCCCCCCCCCC)C(=O)N[C@@H](CO)C(=O)N[C@@H](CCCCN)C(=O)N[C@@H](CCCCN)C(=O)N[C@@H](CCCCN)C(=O)N[C@@H](CCCCN)C(=O)O (stereo partly shown) [Pam3CSK4] (Palmitoyl-C(X1)SKKKK-OH; C-terminus assumed) | – | not | 9.51 | 18.73 | – | respond to both ligands | – | failed to stimulate | failed to stimulate
